Measurements published in the supplement of paper PMC13380429.

How the values were obtained:
Settings in all cases: 72 h
HepG2 [1] = test: drug sensitivity score (DSS) for viability; higher = more toxic; extreme values may be limits of the assay
Caco-2 [2] = test: as above
U2OS [3] = test: as above
Vero E6 [4] = test: as above
Calu-3 [5] = test: as above
HepG2 [6] = test: cell viability relative to DMSO; higher = less toxic
Caco-2 [7] = test: as above
U2OS [8] = test: as above
Vero E6 [9] = test: as above
Calu-3 [10] = test: as above
HepG2 [11] = test: relative viability EC50 (midpoint between 100% and the lowest measured viability); higher = less toxic
Caco-2 [12] = test: as above
U2OS [13] = test: as above
Vero E6 [14] = test: as above
Calu-3 [15] = test: as above

Structure (SMILES) | drug sensitivity score (HepG2 [1]) | drug sensitivity score (Caco-2 [2]) | drug sensitivity score (U2OS [3]) | drug sensitivity score (Vero E6 [4]) | drug sensitivity score (Calu-3 [5]) | cell viability (HepG2 [6]; 1 nM) | cell viability (HepG2 [6]; 10 nM) | cell viability (HepG2 [6]; 100 nM) | cell viability (HepG2 [6]; 1000 nM) | cell viability (HepG2 [6]; 10000 nM) | cell viability (Caco-2 [7]; 1 nM) | cell viability (Caco-2 [7]; 10 nM) | cell viability (Caco-2 [7]; 100 nM) | cell viability (Caco-2 [7]; 1000 nM) | cell viability (Caco-2 [7]; 10000 nM) | cell viability (U2OS [8]; 1 nM) | cell viability (U2OS [8]; 10 nM) | cell viability (U2OS [8]; 100 nM) | cell viability (U2OS [8]; 1000 nM) | cell viability (U2OS [8]; 10000 nM) | cell viability (Vero E6 [9]; 1 nM) | cell viability (Vero E6 [9]; 10 nM) | cell viability (Vero E6 [9]; 100 nM) | cell viability (Vero E6 [9]; 1000 nM) | cell viability (Vero E6 [9]; 10000 nM) | cell viability (Calu-3 [10]; 1 nM) | cell viability (Calu-3 [10]; 10 nM) | cell viability (Calu-3 [10]; 100 nM) | cell viability (Calu-3 [10]; 1000 nM) | cell viability (Calu-3 [10]; 10000 nM) | relative viability EC50 (HepG2 [11]) | relative viability EC50 (Caco-2 [12]) | relative viability EC50 (U2OS [13]) | relative viability EC50 (Vero E6 [14]) | relative viability EC50 (Calu-3 [15])
COC(=O)CCc1ccc(OCC(O)CNC(C)C)cc1 (stereo not given) [esmolol] | 0 | 0 | 0 | 0 | 0 | 110% | 102% | 94.5% | 109% | 96.5% | 102% | 84.8% | 98.5% | 95.5% | 97.8% | 101% | 95% | 94.6% | 94.1% | 99% | 97.2% | 93.1% | 95.5% | 100% | 95.5% | 111% | 99.8% | 96.9% | 105% | 102% | > 10 µM | > 10 µM | > 10 µM | > 10 µM | > 10 µM
CC(Cc1ccc(O)cc1)NCC(O)c1cc(O)cc(O)c1 (stereo not given) [fenoterol] | 0 | 0 | 0 | 0 | 0 | 84.4% | 92.7% | 94% | 93.8% | 82.9% | 124% | 99.3% | 103% | 92.4% | 111% | 101% | 95.1% | 96.4% | 98.5% | 98.4% | 97.6% | 108% | 96.7% | 103% | 92.1% | 103% | 114% | 105% | 95.9% | 103% | > 10 µM | > 10 µM | > 10 µM | > 10 µM | > 10 µM
CC(C)C(=O)Oc1ccc(CO)cc1[C@H](CCN(C(C)C)C(C)C)c1ccccc1 [fesoterodine] | 3 | 0 | 0 | 0 | 0 | 101% | 104% | 83.7% | 90.9% | 90.7% | 91.6% | 99.1% | 103% | 98.8% | 96.5% | 105% | 95.8% | 98.2% | 99.8% | 100% | 100% | 99.9% | 99.2% | 104% | 92.6% | 102% | 97.3% | 90.2% | 100% | 104% | > 10 µM | > 10 µM | > 10 µM | > 10 µM | > 10 µM
